Reference: US7048907B2, “Synthesis, compositions and methods for the measurement of the concentration of stable-isotope labeled compounds in life forms and life form excretory products” (BioPhysics Assay Laboratory, Inc., priority 2001, dated 2006)
Like-named read-outs stand apart in the source and are kept apart here. One block for each compound: values may come before it.

Columns and labels:
[1] = male, New Zealand White, rabbit, in vivo
Method: One New Zealand White male rabbit (m=2 kg) was sedated with intramuscular ketanine (35 mg/kg) and xylazine (5 mg/kg). Both the right and left ear veins were catheterized. One line was used to inject Iohexol (Omnipaque®, Nycomed, Inc., Princeton, N.J.). The injected dose (ID) was 90 mg of iodine. […] For each blood sample, 100 μl of serum was placed in a clean sample vial. A metallic monitor was than added to each vial to account for potential neutron flux density variations during neutron activation analysis. Neutron activation was performed in a 2 megawatt reactor for 1 min and samples were counted within 30 minutes following activation. Counts were converted into disintegrations per minute and the measured iodine concentration for each sample was plotted as a function of time of sample withdrawal. The data was fit to a two compartment exponential model using the equation: Plasma concentration=Ae^−(at)+Be^−(bt). […] The GFR (ml/kg/min) was than calculated as follows: GFR=(ID/AUC)/m, where: ID=initial dose of iohexol, AUC=(A/a+B/b), and m=minutes.

[2] = in vivo; cited from earlier work
[3] = Assay of chelate on carboxymethyl (CM) Sephadex column (chelate formation, charge); assay type: physicochemical; conditions: for % of total: DOTA chelates; for umol Gd: atomic absorption
Method: Preparation of carboxymethyl sephadex column. To two 10 ml plastic pipets cut off at the 3 ml mark and plugged with glass wool at the bottom add enough slurry to form a 2 ml volume of the CM sephadex. Wash the packed resin with 6 ml of 1 M Tris buffer pH 7.5, and 6 ml of 0.01M Tris buffer pH 7.5. […] Collect the eluants of fractions as follows. Fraction 1.3 ml of 0.01 M Tris buffer pH 7.5 and allow to drain into column. Fraction 2.1 ml of sample (gadolinium-DTPA or gadolinium chloride) and allow to drain into column. Apply 3 ml of 0.01 M Tris buffer pH 7.5 and allow to drain into column. Fraction 3.3 ml of 0.01M Tris buffer pH 7.5 and allow to drain into column. Dry all fractions at 70° C. for 76 hours, dissolve in 1 ml of 1 mM HCl and assay by atomic absorption.
(§1) Preparation of carboxymethyl Sephadex column. To two 10 ml plastic pipets which had been cut off at the 3 ml mark and plugged with glass wool at the bottom, enough slurry was added to form a 2 ml volume of the CM Sephadex. The packed resin was wash with 6 ml of 1 M Tris buffer pH 7.5, and 6 ml of 0.01M Tris buffer pH 7.5. […] Fractions were applied as follows. Fraction 1. Three ml of 0.01 M Tris buffer pH 7.5 and allow to drain into column. Fraction 2. One ml of sample (samarium-DTPA or samarium chloride) and allow to drain into column. Apply 3 ml of 0.01 M Tris buffer pH 7.5 and allow to drain into column. Fraction 3. Three ml of 0.01M Tris buffer pH 7.5 and allow to drain into column. Collect the eluant of fractions 1 through 3. Fraction 4. Column and contents.
as §1, with “were” for “had been”, “washed” for “wash”, “(lanthanum-DTPA” for “(samarium-DTPA”, “lanthanum” for “samarium”
as §1, with “were” for “had been”, “washed” for “wash”, “(Europium-DTPA” for “(samarium-DTPA”, “Europium” for “samarium”
Preparation of carboxymethyl sephadex column. To a 10 ml plastic pipet cut off at the 3 ml mark and plugged with glass wool at the bottom, add enough slurry to form a 2 ml volume of the CM sephadex. Wash the packed resin with 6 ml of 1 M Tris buffer pH 7.5, and 6 ml of 0.01M Tris buffer pH 7.5. […] Apply fractions as follows. Fraction 1. One ml of sample A and allow to drain into column.

[4] = demonstrated by properties of the marketed pharmaceutical product; cited from earlier work
[5] = Fraction 1: 1 ml sample diluted 1:10 then 3 ml 0.01M Tris pH 7.5 (eluate)
[6] = Fraction 2: further 3 ml 0.01M Tris pH 7.5

GFR [1]: 4.8 mL/min/kg
serum concentration ([1]; 5 min): 124.4 µg/mL
serum iodine signal ([1]; 5 min): 5166.1 dpm/ul
serum concentration ([1]; 10 min): 109.4 µg/mL
serum iodine signal ([1]; 10 min): 4541.7 dpm/ul
serum concentration ([1]; 15 min): 86.6 µg/mL
serum iodine signal ([1]; 15 min): 3595.7 dpm/ul
serum concentration ([1]; 20 min): 88.85 µg/mL
serum iodine signal ([1]; 20 min): 3689.4 dpm/ul
serum concentration ([1]; 30 min): 67.69 µg/mL
serum iodine signal ([1]; 30 min): 2810.5 dpm/ul
serum concentration ([1]; 45 min): 47.02 µg/mL
serum iodine signal ([1]; 45 min): 1952.3 dpm/ul
serum concentration ([1]; 60 min): 48.94 µg/mL
serum iodine signal ([1]; 60 min): 2032.3 dpm/ul
serum concentration ([1]; 96 min): 31.74 µg/mL
serum iodine signal ([1]; 96 min): 1317.8 dpm/ul
serum concentration ([1]; 120 min): 23.65 µg/mL
serum iodine signal ([1]; 120 min): 982.0 dpm/ul
Compound: CC(=O)N(CC(O)CO)c1c(I)c(C(=O)NCC(O)CO)c(I)c(C(=O)NCC(O)CO)c1I (stereo not drawn) [Iohexol]

Compound: O=C([O-])C(NCCNC(C(=O)[O-])c1ccccc1[O-])c1ccccc1[O-].[Fe+3] (stereo not drawn) [FE-EHPG]
uptake into liver [2]: 6 % of an administered dose

% eluted from the CM-Sephadex column [3]: 100%
% of total [3, 5]: 100 % of total
% of total [3, 6]: 0 % of total
umol Gd [3, 5]: 0.1 µmol
umol Gd [3, 6]: 0 µmol
time within which the chelate forms ([3]; room temperature, Tris pH 7.5): ≤ 5 min
Compound: O=C([O-])CN1CCN(CC(=O)[O-])CCN(CC(=O)O)CCN(CC(=O)[O-])CC1.[Gd+3] [Gd-DOTA, Gd-(1,4,7,10-tetraazacyclododecane-1,4,7,10-tetraacetic acid), reference compound]
stability to autoclaving [4]: stable to autoclaving
